# Test results published in patent US8183281B2, “CXC-chemokine receptor ligands” (Novartis AG, priority 2007, dated 2012).
# Target: T1, Human CXCR2 Receptor (Homo sapiens, UniProt P25025)
# T1 construct: purchased Biosignal Packard Inc; host or cells: Chinese hamster ovary cells (CHO-K1), membranes
# T1 sequence (P25025 1-360): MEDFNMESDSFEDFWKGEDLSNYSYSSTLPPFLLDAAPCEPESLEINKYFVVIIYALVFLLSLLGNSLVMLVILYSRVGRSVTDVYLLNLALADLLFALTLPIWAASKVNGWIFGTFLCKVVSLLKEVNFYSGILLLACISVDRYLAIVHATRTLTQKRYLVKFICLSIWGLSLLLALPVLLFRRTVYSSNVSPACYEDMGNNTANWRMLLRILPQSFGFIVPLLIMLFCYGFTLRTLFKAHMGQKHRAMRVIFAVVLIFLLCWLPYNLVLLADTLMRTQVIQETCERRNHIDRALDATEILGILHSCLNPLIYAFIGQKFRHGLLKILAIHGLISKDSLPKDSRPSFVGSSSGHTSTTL
# Experiment: [35S]-GTPγS binding assay for human CXCR2 receptor using SPA technology
# Assay type: biochemical
# Settings: CHO-K1 membranes expressing human CXCR2; 100 nM IL-8 stimulated; read-out: IC50 values in the [35S]-GPTγS binding assay
# Description: [^35S]-GTPγS Binding Assay for Human CXCR2 Receptor Using SPA Technology
# [^35S]-GTPγS (with specific activity 1082 Ci/mmol) and wheat germ agglutinin poly vinyl toluene scintillation proximity beads are purchased from Amersham Pharmacia Biotech. The Chinese hamster ovary cell (CHO-K1) membranes expressing human CXCR2 receptors are purchased from Biosignal Packard Inc. All other chemicals are of analytical grade. White non-binding surface 96 well Optiplate™ microplates are obtained from Packard. Recombinant human IL-8 is synthesised, cloned and expressed in Escherichia coli as described previously (Lindley I, et al., Proc. Natl. Acad. Sci., 1988, 85(23):9199). The assay is performed in duplicate in 96 well Optiplate™ microplate in a final volume of 250 μl per well. Compounds are diluted in DMSO (0.5% final concentration) and incubated in 20 mM HEPES buffer pH 7.4 containing 10 mM MgCl2, 100 mM NaCl, 1 mM EDTA plus 100 nM IL-8, 50 μM GDP and […] [^35S]GTPγS per well. SPA beads (1 mg/well final concentration) were pre-mixed with the membranes (10 μg/well final concentration) in assay buffer: 20 mM HEPES buffer pH 7.4 containing 10 mM MgCl2, 100 mM NaCl, 1 mM EDTA. […] The plate is centrifuged and read on Packard TopCoun™ scintillation counter, program [^35S dpm] for 1 min/well. Data are expressed as the % response to 100 nM IL-8 minus basal.
structure (smiles),measurement,value
"CC[C@@H](Nc1c(Nc2ccc(Cl)c(S(=O)(=O)N3CCCC3)c2O)c(=O)c1=O)[C@H]1CC[C@@H](C)O1 [Example 17, 3-[4-Chloro-2-hydroxy-3-(pyrrolidine-1-sulfonyl)-phenylamino]-4-[(R)-1-((2R,5R)-5-methyl-tetrahydrofuran-2-yl)-propylamino]-cyclobut-3-ene-1,2-dione]",IC50,58 nM
"O=c1c(Nc2ccc(Cl)c(S(=O)(=O)N3CCOCC3)c2O)c(NC2CCSC2)c1=O (centres unmarked) [Example 7, 3-[4-Chloro-2-hydroxy-3-(morpholine-4-sulfonyl)-phenylamino]-4-(tetra-hydro-thiophen-3-ylamino)-cyclobut-3-ene-1,2-dione]",IC50,22 nM
